One data set has as its system A2780 cells. The experiment in a line: Antiproliferation assay A2780 (Assay 7). The conditions noted are these: 72 h, CellTiter-Glo; read-out: Antiproli A2780 IC50 median. In kind it is cell-based. The procedure:
(§1) Assessment of the Anti-Proliferative Effect of Compounds in Different Cell Lines
(§2) The impact of compounds on the proliferation of different cell lines was assessed using the CellTiter-Glo® Luminescent Cell Viability reagent from Promega (G7573).
(§3) In parallel, cells were plated in a reference (day 0) plate for time zero determination. Cells were incubated in a humidified incubator at 37° C. overnight.
(§4) Rim wells were excluded. The cells were incubated for 72 h hours in a humidified incubator at 37° C. The day 0 plate was measured by adding 30 μL/well of CTG solution (CellTiter-Glo® Luminescent Cell Viability reagent, Promega G7573) to time zero wells in the reference plate followed by a 10 minutes incubation and luminescence reading at 0.1 ms. using the PHERAstar FS microplate reader (BMG Labtech).
(§5) After 72 h incubation, the treated plates were measured in the same way as the day 0 plate mentioned above. The Bella DRC Master Sheet was used to calculate IC50s, with CI=day 0 values and C0=DMSO control values.
For orientation: Cellular ATP, detected with luciferase, serves as a proxy for viable cell number.

The subject of another data set is REC-1 cells. The experiment in a line: Antiproliferation assay REC-1 (Assay 7). Format: cell-based. The conditions noted are these: 72 h, CellTiter-Glo; read-out: Antiproli REC-1 IC50. The procedure:
as §1, §2, §3, §4, §5

In another data set the test system is MV-4-11 cells. The experiment in a line: Antiproliferation assay MV-4-11 (Assay 7). In kind it is cell-based. The settings on record: 72 h, CellTiter-Glo; read-out: Antiproli MV-4-11 IC50 median. The procedure:
as §1, §2, §3, §4, §5

Another data set concerns SNU-389 cells. The experiment in a line: Antiproliferation assay SNU-389 (Assay 7). Format: cell-based. The conditions noted are these: 72 h, CellTiter-Glo; read-out: Antiproli SNU-389 IC50. The method, then: as §1, §2, §3, §4, §5
For another data set, the system named is AMO-1 cells. The experiment in a line: Antiproliferation assay AMO-1 (Assay 7). Format: cell-based. The settings on record: 72 h, CellTiter-Glo; read-out: Antiproli AMO-1 IC50 median. The gist of the method: (§6)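 CTG luminescence readout; cells plated, overnight at 37 °C, then 72 h compound treatment. Time-zero plate read in parallel. IC50 from day 0 and DMSO-normalised signal.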

For a further data set, the system named is HMC-1-8 cells. The experiment in a line: Antiproliferation assay HMC-1-8 (Assay 7). Format: cell-based. The settings on record: 72 h, CellTiter-Glo; read-out: Antiproli HMC-1-8 IC50 median. In a few lines:
as §6

The subject of the next data set is NCI-H23 cells. The experiment in a line: Antiproliferation assay NCI-H23 (Assay 7). The conditions noted are these: 72 h, CellTiter-Glo; read-out: Antiproli NCI-H23 IC50. Format: cell-based. The method, then: as §1, §2, §3, §4, §5
A further data set deals with SK-MEL-2 cells. The experiment in a line: Antiproliferation assay SK-MEL-2 (Assay 7). In kind it is cell-based. The settings on record: 72 h, CellTiter-Glo; read-out: Antiproli SK-MEL-2 IC50 median. The procedure: as §1, §2, §3, §4, §5
The next data set relates to A2058 cells. The experiment in a line: Antiproliferation assay A2058 (Assay 7). In kind it is cell-based. The settings on record: 72 h, CellTiter-Glo; read-out: Antiproli A2058 IC50. The procedure:
as §1, §2, §3, §4, §5

The subject of the next data set is SK-BR-3 cells. The experiment in a line: Antiproliferation assay SK-BR-3 (Assay 7). The conditions noted are these: 72 h, CellTiter-Glo; read-out: Antiproli SK-BR-3 IC50 median. Format: cell-based. The method, then:
as §1, §2, §3, §4, §5

Another data set concerns the target MCL-1 (Homo sapiens (Human), UniProt Q07820, K194A/K197A/R201A). The experiment in a line: Protein-protein interaction assay MCL-1/Noxa BH3 peptide (MCL-1 assay, TR-FRET). Format: binding. The conditions noted are these: read-out: MCL-1 Assay IC50 (median). In a few lines: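 IC50 came from a 4-parameter regression of the 665/620 nm emission ratio, normalized to DMSO controls. The mix held 1 nM MBP-fused MCL-1 (residues 173-321), a biotin-Noxa BH3 tracer and compound in Tris buffer pH 7, incubated 10 min plus 1 h at 22° C., then overnight at 4° C.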

In another data set the test system is SUDHL5 cells. The experiment in a line: Induction of cytotoxicity in SUDHL5 cells (Assay 6). In kind it is cell-based. The settings on record: 5 h, CellTiter-Glo; read-out: Cytotox SUDHL5 IC50 (median). In a few lines: (§7)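 Following overnight seeding at 37 °C, cells are treated with compound for 5 h, after which CellTiter-Glo reagent is added and luminescence measured following a 15 min room-temperature shake.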

Another data set has as its system SUDHL10 cells. The experiment in a line: Induction of cytotoxicity in SUDHL10 cells (Assay 6). In kind it is cell-based. The conditions noted are these: 5 h, CellTiter-Glo; read-out: Cytotox SUDHL10 IC50 (median). The gist of the method: as §7
In another data set the target is MBP-MCL1 (Homo sapiens (Human), UniProt Q07820, K194A/K197A/R201A). The experiment in a line: X-ray crystallographic analysis of MBP-MCL1 in complex with inhibitor. In kind it is binding. The conditions noted are these: MBP-MCL1 co-crystal structure. The text has this: For clarity only the ligand non-hydrogen atoms are shown. Carbon atom C7 unambiguously features the (R)-configuration and the bound atropisomer as defined by the C4-C38 axis is the (Ra)-configuration.
Chain of MBP-MCL1 (Q07820 whole entry, looked up, stated change not applied): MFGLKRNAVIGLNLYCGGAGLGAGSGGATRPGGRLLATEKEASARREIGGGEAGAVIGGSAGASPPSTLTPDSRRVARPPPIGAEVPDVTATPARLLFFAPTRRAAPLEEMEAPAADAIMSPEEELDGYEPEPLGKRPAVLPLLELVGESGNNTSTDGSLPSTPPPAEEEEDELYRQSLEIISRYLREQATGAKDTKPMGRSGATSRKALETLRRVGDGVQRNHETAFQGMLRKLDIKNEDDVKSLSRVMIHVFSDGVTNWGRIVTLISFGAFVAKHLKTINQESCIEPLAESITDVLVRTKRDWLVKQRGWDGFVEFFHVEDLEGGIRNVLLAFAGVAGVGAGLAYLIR
The X-ray crystallographic analysis described in the MCL-1 structural analysis section infra, provides an atomic resolution view of the relative arrangement of the atoms of MBP-MCL1 in complex with example 47.

Consider three compounds from patent US11440923B2, “Substituted macrocyclic indole derivatives” (Bayer Aktiengesellschaft, priority 2017, dated 2022).

Chain of MCL-1 (Q07820 whole entry, looked up, stated change not applied, the tested form may be a part): as the sequence (Q07820 whole entry, looked up, stated change not applied) above

For orientation: IC50 means the point on the concentration scale where inhibition reaches its midpoint. As to `Cc1c2c(nn1C)C(CCN1CCOCC1)OCCCCn1c(C(=O)O)c(CCCOc3cccc4ccccc34)c3cccc-2c31` (centres unmarked) [Example 04], the IC50 in the data set with A2780 cells was found to be 14.3 µM; in the data set on REC-1 cells, 21 µM; in the data set with MV-4-11 cells, 1.75 µM; in the data set on SNU-389 cells, 10.7 µM; in the data set on AMO-1 cells, 2.56 µM.

Consider `Cc1c2c(nn1C)C(CCN1CCOCC1)OCCCCn1c(C(=O)O)c(CCCOc3cccc4ccccc34)c3cccc-2c31` (centres unmarked) [Example 05], for which the 50% inhibitory concentration (IC50) with A2780 cells was 14.4 µM; with HMC-1-8 cells, 6.29 µM; in the data set on NCI-H23 cells, 6.98 µM; with MV-4-11 cells it was 1.75 µM; in the data set on SK-MEL-2 cells, 11.6 µM; in the data set with AMO-1 cells it was 9.47 µM. Also, the IC50 in the data set on A2058 cells was 12.8 µM; in the data set on SK-BR-3 cells, 7.3 µM.

`CCc1c2c(nn1C)[C@@H](CCN1CCOCC1)OCCCCn1c(C(=O)O)c(CCCOc3cccc4cc(F)ccc34)c3ccc(Cl)c-2c31` [Example 47, (+)-4-chloro-3-ethyl-7-{3-[(6-fluoronaphthalen-1-yl)oxy]propyl}-2-methyl-(15R)-[2-(morpholin-4-yl)ethyl]-2,10,11,12,13,15-hexahydropyrazolo[4′,3′:9,10][1,6]oxazacycloundecino[8,7,6-hi]indole-8-carboxylic Acid]: the IC50 was 0.00037 µM at MCL-1, 0.0082 µM with SUDHL5 cells and 0.0079 µM in the data set on SUDHL10 cells. Further, the “interaction with the target MCL1 shown by X-ray structure of the complex” value at MBP-MCL1 was “clear and direct interaction”.
